Tests used:
[1] = molecular target: T1, Metabotropic glutamate receptor 8 (Rattus norvegicus, UniProt P70579); assay: Agonist activity in rat at Metabotropic glutamate receptor 8 expressed in HEK293 cells; type: functional, cell-based
[2] = molecular target: Metabotropic glutamate receptor 1 (Rattus norvegicus) (UniProt P23385); assay: Maximal effect obtained with 1 mM of the drug expressed as percent of maxiaml effect of glutamate in rat at mGlu1a receptor expressed in HEK293 cells; type: functional, cell-based
[3] = molecular target: Metabotropic glutamate receptor 2 (Rattus norvegicus) (UniProt P31421); assay: (§1) Maximal effect obtained with 1 mM of the drug expressed as percent of maxiaml effect of glutamate in rat at mGlu2 receptor expressed in HEK293 cells; type: functional, cell-based
[4] = molecular target: Metabotropic glutamate receptor 1 (Rattus norvegicus, UniProt P23385); assay: Agonist activity in rat at mGlu1a receptor expressed in HEK293 cells; type: functional, cell-based
[5] = molecular target: T1, Metabotropic glutamate receptor 8; assay: Agonist activity in rat at mGlu8a receptor expressed in HEK293 cells; type: functional, cell-based
[6] = molecular target: Metabotropic glutamate receptor 8 (Rattus norvegicus) (UniProt P70579); assay: Maximal effect obtained with 1 mM of the drug expressed as percent of maxiaml effect of glutamate in rat at mGlu8a receptor expressed in HEK293 cells; type: functional, cell-based
[7] = molecular target: Metabotropic glutamate receptor 2 (Rattus norvegicus, UniProt P31421); assay: Agonist activity in rat at mGlu2 receptor expressed in HEK293 cells; type: functional, cell-based
[8] = molecular target: Metabotropic glutamate receptor 2 (Rattus norvegicus) (UniProt P31421); assay: as §1; type: cell-based

T1 sequence (P70579 whole entry): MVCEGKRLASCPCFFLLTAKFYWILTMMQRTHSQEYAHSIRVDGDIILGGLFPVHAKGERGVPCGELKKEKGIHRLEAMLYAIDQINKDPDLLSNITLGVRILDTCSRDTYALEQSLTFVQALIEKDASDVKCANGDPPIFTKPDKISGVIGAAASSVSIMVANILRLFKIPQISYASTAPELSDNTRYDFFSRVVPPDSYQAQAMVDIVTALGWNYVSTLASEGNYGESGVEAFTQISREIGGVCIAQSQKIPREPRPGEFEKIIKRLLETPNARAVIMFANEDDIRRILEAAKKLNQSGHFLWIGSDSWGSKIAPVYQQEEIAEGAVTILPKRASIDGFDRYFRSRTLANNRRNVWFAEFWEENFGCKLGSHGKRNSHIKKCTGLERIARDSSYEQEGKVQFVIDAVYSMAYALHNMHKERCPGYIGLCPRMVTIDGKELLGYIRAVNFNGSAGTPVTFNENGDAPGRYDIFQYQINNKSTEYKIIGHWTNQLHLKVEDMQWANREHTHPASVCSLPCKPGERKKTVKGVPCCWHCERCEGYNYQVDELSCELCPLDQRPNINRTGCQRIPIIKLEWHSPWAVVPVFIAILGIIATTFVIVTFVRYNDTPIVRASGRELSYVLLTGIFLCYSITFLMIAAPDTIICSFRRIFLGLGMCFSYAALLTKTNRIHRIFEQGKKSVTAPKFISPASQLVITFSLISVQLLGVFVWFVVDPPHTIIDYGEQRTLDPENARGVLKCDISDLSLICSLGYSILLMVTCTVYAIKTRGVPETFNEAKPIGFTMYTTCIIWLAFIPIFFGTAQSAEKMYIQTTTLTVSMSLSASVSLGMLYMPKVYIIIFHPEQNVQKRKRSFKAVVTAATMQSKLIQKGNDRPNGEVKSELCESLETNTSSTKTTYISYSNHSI
Chain of Metabotropic glutamate receptor 2 (P31421 whole entry): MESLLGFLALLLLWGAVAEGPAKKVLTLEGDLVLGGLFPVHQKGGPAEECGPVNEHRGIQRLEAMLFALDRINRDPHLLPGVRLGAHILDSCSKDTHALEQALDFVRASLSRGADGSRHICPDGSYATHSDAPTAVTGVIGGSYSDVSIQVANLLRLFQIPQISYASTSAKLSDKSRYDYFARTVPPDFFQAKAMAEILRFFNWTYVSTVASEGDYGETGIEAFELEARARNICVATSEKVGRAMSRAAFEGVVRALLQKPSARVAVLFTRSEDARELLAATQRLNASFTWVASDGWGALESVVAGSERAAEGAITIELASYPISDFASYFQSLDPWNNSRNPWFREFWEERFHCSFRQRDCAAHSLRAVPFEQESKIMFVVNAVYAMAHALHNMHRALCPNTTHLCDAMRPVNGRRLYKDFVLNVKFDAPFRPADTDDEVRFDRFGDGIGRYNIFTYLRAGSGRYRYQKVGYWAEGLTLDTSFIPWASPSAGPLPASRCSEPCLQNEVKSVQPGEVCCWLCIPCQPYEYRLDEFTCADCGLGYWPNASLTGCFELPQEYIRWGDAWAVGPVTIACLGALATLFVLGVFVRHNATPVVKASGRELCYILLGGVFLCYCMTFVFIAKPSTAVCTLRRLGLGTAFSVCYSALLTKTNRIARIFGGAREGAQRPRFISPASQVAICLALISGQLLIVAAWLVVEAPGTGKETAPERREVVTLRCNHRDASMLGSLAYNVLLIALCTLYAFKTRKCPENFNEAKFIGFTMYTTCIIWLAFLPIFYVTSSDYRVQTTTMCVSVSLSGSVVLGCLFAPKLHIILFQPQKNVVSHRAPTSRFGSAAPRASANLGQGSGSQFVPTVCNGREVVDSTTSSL
Chain of Metabotropic glutamate receptor 1 (Rattus norvegicus) (P23385 19-1199 limits assumed): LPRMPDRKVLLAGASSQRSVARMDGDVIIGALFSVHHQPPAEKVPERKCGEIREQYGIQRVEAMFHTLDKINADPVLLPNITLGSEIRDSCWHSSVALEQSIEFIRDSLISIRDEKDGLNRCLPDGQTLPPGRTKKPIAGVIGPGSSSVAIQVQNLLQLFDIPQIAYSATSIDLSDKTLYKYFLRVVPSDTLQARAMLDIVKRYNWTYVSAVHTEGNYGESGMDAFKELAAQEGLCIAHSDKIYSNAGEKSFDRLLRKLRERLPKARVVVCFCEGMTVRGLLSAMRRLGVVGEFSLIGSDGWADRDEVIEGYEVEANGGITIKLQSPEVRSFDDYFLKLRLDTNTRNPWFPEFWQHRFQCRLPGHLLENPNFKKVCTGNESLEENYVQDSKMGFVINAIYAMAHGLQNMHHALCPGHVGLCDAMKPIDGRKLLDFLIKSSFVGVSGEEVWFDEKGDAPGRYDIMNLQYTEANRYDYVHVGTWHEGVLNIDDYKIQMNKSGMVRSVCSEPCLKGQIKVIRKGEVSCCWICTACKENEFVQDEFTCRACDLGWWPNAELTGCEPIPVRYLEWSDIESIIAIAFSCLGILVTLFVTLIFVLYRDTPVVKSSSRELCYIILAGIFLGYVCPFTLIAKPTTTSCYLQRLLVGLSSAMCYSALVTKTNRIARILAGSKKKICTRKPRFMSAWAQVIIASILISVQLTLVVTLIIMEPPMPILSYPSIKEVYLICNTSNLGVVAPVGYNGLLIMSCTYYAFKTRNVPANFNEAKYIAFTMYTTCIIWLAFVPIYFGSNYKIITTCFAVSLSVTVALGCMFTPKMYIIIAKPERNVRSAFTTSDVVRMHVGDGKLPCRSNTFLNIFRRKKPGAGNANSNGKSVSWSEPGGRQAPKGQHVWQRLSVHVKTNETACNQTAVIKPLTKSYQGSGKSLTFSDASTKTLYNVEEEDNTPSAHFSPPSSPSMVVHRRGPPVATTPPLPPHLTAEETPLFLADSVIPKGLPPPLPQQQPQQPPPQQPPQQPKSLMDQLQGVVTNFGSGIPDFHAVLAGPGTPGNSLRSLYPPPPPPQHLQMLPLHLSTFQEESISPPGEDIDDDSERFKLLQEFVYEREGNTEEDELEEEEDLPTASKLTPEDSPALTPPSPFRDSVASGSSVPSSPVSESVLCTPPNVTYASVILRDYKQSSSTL
Chain of Metabotropic glutamate receptor 1 (P23385 whole entry): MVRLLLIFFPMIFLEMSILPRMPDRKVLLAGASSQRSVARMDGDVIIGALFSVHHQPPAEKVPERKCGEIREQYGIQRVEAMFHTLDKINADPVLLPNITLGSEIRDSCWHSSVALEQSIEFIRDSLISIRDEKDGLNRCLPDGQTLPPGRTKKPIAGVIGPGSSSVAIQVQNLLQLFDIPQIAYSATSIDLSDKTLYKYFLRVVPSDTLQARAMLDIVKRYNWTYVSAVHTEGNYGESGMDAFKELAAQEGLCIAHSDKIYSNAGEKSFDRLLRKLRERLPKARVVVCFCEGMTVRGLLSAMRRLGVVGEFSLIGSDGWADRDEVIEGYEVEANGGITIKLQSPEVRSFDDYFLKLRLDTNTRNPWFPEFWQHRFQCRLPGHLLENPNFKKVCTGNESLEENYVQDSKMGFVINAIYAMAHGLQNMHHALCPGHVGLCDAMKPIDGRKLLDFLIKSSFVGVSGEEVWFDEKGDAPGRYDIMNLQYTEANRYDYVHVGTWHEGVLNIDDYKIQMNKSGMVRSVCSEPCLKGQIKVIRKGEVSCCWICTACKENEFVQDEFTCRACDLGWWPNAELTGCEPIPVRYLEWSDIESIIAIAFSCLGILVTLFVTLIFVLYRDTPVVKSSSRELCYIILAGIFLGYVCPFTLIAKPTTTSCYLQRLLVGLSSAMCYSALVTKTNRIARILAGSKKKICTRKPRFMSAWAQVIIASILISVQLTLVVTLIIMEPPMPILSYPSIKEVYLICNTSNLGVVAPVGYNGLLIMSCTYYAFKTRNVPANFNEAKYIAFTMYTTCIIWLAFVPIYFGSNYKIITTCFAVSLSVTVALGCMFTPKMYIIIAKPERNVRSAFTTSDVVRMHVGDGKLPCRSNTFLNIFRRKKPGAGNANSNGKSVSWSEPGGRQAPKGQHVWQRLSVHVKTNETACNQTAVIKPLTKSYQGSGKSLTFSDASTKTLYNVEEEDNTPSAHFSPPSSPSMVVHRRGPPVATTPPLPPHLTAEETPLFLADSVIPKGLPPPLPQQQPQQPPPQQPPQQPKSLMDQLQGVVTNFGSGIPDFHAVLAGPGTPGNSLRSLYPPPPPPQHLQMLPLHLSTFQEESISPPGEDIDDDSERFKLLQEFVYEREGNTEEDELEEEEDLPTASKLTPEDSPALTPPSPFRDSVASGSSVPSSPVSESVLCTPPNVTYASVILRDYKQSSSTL
Chain of Metabotropic glutamate receptor 2 (Rattus norvegicus) (P31421 19-872 limits assumed): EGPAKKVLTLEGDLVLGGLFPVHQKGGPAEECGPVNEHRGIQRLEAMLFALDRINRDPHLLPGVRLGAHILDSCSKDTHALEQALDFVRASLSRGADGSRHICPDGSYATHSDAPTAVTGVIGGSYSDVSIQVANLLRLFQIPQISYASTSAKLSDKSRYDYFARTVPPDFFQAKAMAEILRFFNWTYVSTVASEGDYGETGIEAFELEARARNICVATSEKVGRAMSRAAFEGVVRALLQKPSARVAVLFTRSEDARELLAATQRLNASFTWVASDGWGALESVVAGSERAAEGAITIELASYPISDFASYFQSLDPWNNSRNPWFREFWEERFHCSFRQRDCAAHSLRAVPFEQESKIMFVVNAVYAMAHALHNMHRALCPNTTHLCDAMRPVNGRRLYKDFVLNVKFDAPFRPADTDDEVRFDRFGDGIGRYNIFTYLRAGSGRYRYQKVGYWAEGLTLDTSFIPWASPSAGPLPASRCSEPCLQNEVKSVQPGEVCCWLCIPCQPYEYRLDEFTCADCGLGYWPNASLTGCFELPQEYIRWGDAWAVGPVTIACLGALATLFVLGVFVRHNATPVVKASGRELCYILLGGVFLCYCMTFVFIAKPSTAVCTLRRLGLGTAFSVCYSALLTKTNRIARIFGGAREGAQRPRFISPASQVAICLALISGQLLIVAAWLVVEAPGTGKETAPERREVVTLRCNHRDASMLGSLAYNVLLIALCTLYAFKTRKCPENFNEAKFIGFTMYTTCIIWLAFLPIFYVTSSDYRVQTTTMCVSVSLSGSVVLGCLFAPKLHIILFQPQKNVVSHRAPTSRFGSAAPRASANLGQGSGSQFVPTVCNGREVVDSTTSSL
Chain of Metabotropic glutamate receptor 8 (Rattus norvegicus) (P70579 whole entry): as the sequence (P70579 whole entry) above

Row | EC50 [1] | Rmax [2] | Rmax [3] | EC50 [4] | EC50 [5] | Rmax [6] | EC50 [7] | Rmax [8] | SMILES
1 | 8 µM | – | – | – | – | – | – | – | N[C@@H](CCC(=O)O)C(=O)O [GLUTAMIC ACID]
2 | – | 95% | 60% | 11 µM | 53 µM | 94% | 137 µM | – | N[C@@H](C[C@H](O)C(=O)O)C(=O)O
3 | – | 70% | – | 373 µM | 69 µM | 54% | 161 µM | 52% | N[C@@H](C[C@@H](O)C(=O)O)C(=O)O

Reference: ChEMBL document CHEMBL1134758, “New probes of the agonist binding site of metabotropic glutamate receptors” (Bioorg Med Chem Lett, 2001)
